Measurements: ChEMBL document CHEMBL1909046, “DrugMatrix in vitro pharmacology data”

Assays:
Cytochrome P450 2A6 = molecular target: T1, Cytochrome P450 2A6 (Homo sapiens, UniProt P11509); settings: bti-tn-5b1-4; further: in other assays of this panel Not Active means under 50% inhibition at 10 µM
T1 sequence (P11509 whole entry): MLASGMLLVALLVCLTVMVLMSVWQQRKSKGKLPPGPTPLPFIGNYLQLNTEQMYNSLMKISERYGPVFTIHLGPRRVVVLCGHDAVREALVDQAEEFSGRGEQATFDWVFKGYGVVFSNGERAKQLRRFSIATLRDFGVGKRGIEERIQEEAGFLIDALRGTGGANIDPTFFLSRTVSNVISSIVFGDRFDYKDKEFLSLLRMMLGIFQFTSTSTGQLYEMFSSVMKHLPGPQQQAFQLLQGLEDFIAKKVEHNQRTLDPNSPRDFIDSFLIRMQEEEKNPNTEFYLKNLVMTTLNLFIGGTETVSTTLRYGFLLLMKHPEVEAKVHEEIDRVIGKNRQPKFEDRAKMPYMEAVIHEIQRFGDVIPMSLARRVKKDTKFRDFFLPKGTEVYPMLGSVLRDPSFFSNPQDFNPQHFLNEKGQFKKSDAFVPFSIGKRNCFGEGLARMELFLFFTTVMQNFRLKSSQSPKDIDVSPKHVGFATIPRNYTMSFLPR

[1] = molecular target: T2, Muscarinic acetylcholine receptor M4 (Homo sapiens, UniProt P08173); assay type: cell membranes, CHO-K1, Membrane; settings: cho-k1; further: in other assays of this panel Not Active means under 50% inhibition at 10 µM
T2 sequence (P08173 whole entry): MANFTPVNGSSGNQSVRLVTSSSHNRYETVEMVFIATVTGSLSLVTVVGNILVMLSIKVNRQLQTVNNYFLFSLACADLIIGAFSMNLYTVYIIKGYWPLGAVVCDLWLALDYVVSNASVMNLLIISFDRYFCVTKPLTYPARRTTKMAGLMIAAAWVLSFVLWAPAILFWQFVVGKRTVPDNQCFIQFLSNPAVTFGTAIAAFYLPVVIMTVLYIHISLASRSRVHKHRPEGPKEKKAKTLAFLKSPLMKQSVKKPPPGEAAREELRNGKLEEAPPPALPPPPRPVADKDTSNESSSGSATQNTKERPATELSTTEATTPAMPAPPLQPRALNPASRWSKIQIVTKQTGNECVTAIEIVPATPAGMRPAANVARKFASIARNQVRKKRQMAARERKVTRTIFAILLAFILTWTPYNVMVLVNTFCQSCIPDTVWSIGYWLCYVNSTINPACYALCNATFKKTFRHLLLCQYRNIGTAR

[2] = DRUGMATRIX: Calcium Channel Type L, Phenylalkylamine radioligand binding (ligand: [3H] (-)-Desmethoxyverapamil (D-888)); assay type: cell membranes, Rattus norvegicus, Wistar, Brain, Membrane; settings: Not Active = under 50% inhibition at 10 µM
Melanocortin receptor 4 = Melanocortin receptor 4 (Homo sapiens, UniProt P32245); assay type: cell membranes, HEK293, Membrane; settings: hek293; further: in other assays of this panel Not Active means under 50% inhibition at 10 µM
Chain of Melanocortin receptor 4 (P32245 whole entry): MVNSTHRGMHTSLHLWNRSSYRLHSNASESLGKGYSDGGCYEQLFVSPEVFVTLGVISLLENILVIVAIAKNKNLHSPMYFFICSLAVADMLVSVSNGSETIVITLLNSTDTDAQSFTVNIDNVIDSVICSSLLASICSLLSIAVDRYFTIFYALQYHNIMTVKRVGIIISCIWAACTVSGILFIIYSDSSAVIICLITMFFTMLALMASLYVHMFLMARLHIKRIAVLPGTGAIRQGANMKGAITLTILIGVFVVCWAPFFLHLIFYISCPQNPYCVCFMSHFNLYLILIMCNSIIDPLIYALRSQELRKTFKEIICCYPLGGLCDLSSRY

[3] = DRUGMATRIX: Leukotriene, BLT (LTB4) radioligand binding (ligand: [3H]LTB4); assay type: cell membranes, Membrane; settings: u-937; Not Active = under 50% inhibition at 10 µM
D(1A) dopamine receptor = D(1A) dopamine receptor (Homo sapiens, UniProt P21728); test: DRUGMATRIX: Dopamine D1 radioligand binding (ligand: [3H] SCH-23390); assay type: cell membranes, CHO, Membrane; settings: cho; Not Active = under 50% inhibition at 10 µM
Chain of D(1A) dopamine receptor (P21728 whole entry): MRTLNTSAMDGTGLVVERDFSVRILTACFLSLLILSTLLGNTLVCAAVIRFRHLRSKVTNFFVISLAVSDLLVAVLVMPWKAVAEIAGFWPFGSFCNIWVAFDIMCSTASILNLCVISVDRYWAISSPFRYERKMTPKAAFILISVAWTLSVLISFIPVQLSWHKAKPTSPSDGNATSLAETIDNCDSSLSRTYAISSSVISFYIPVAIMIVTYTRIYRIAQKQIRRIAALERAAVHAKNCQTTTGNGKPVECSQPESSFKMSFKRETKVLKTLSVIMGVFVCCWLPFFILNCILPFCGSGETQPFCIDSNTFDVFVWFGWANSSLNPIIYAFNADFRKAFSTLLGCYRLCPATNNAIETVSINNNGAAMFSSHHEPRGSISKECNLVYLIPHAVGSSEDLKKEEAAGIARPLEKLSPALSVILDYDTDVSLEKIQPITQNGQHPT

CC[C@H](C)[C@H]1O[C@]2(C=C[C@@H]1C)C[C@@H]1C[C@@H](C/C=C(\C)[C@@H](O[C@H]3C[C@H](OC)[C@@H](O[C@H]4C[C@H](OC)[C@@H](O)[C@H](C)O4)[C@H](C)O3)[C@@H](C)/C=C/C=C3\CO[C@@H]4[C@H](O)C(C)=C[C@@H](C(=O)O1)[C@]34O)O2.CO[C@H]1C[C@H](O[C@H]2[C@H](C)O[C@@H](O[C@@H]3/C(C)=C/C[C@@H]4C[C@@H](C[C@]5(C=C[C@H](C)[C@@H](C(C)C)O5)O4)OC(=O)[C@@H]4C=C(C)[C@@H](O)[C@H]5OC/C(=C\C=C\[C@@H]3C)[C@]54O)C[C@@H]2OC)O[C@@H](C)[C@@H]1O [ABAMECTIN]
Not Active: IC50 (Cytochrome P450 2A6) | Ki (Cytochrome P450 2A6) | IC50 [1] | IC50 [2] | Ki [2] | IC50 (Melanocortin receptor 4) | IC50 [3] | Ki [3]

COc1cc([C@@H]2c3cc4c(cc3[C@@H](O[C@@H]3O[C@@H]5CO[C@@H](C)O[C@H]5[C@H](O)[C@H]3O)[C@H]3COC(=O)[C@H]23)OCO4)cc(OC)c1O [ETOPOSIDE]
Not Active: IC50 [1] | IC50 [2] | Ki [2] | IC50 (Melanocortin receptor 4) | IC50 (D(1A) dopamine receptor) | IC50 [3] | Ki [3]

CC(=O)[C@@]1(O)CC[C@H]2[C@@H]3CCC4=CC(=O)CC[C@]4(C)[C@H]3CC[C@@]21C [HYDROXYPROGESTERONE]
Not Active: IC50 [1] | IC50 [2] | Ki [2] | IC50 (Melanocortin receptor 4) | IC50 (D(1A) dopamine receptor) | IC50 [3] | Ki [3]

CC(C)NCC(O)COc1cccc2[nH]ccc12 (centres undefined) [PINDOLOL]
Not Active: IC50 [1] | IC50 [2] | Ki [2] | IC50 (Melanocortin receptor 4) | IC50 (D(1A) dopamine receptor) | IC50 [3] | Ki [3]

COc1ccc2c3c1O[C@H]1C[C@@H](O)C=C[C@@]31CCN(C)C2 [GALANTAMINE]
Not Active: IC50 [1] | IC50 [2] | Ki [2] | IC50 (Melanocortin receptor 4) | IC50 (D(1A) dopamine receptor) | IC50 [3] | Ki [3]

COc1ccc2cc3[n+](cc2c1OC)CCc1cc2c(cc1-3)OCO2.[Cl-] [BERBERINE CHLORIDE]
Not Active: IC50 (Cytochrome P450 2A6) | Ki (Cytochrome P450 2A6) | IC50 [1] | IC50 [2] | Ki [2] | IC50 (Melanocortin receptor 4) | IC50 [3] | Ki [3]

CC(C)=CCC/C(C)=C/CO [GERANIOL]
Not Active: IC50 [1] | IC50 [2] | Ki [2] | IC50 (Melanocortin receptor 4) | IC50 (D(1A) dopamine receptor) | IC50 [3] | Ki [3]

CN1[C@@H]2CC[C@H]1C[C@@H](OC(=O)C(CO)c1ccccc1)C2 (some centres undefined) [ATROPINE]
Not Active: IC50 (Cytochrome P450 2A6) | Ki (Cytochrome P450 2A6) | IC50 (Melanocortin receptor 4) | IC50 (D(1A) dopamine receptor) | IC50 [3] | Ki [3]

CC(C)c1cccc(C(C)C)c1O [PROPOFOL]
Not Active: IC50 [1] | IC50 [2] | Ki [2] | IC50 (Melanocortin receptor 4) | IC50 (D(1A) dopamine receptor) | IC50 [3] | Ki [3]
